Laboratory results published in patent US10251869B2, “Compositions and methods of inhibiting metallo-β-lactamases” (priority 2014, dated 2019).
Converted amounts (≈) assume the structure as drawn. Like-named read-outs stand apart in the source and are kept apart here.

How the values were obtained:
[1] = target: T1, VIM-24 (Escherichia coli, UniProt Q5U7L7, R205L); assay: Cefepime and ceftazidime hydrolysis in periplasm preparations, VIM-24; type: biochemical; settings: 800 μM cefepime or 400 μM ceftazidime, 25° C.
T1 construct: which corresponds to cleavage after residues 20 (plus an additional Met residue on the N-terminus); made in house; host or cells: E. coli BL21(DE3) pLys, plasmid pET-24a(+)-blaVIM-24-S21
Experimental: (§1) Additionally, cefepime and ceftazidime hydrolysis were measured using periplasm preparations, as previously described. Briefly, periplasmic preparations of E. coli DH10B pBC SK (−) harboring blaVIM-2 or blaVIM-24 were obtained by osmotic shock with chloroform, and MBL production assessed by immunoblotting. Initial velocities of hydrolysis at high substrate concentrations (800 μM for cefepime and 400 μM for ceftazidime) were measured using equal amounts of both β-lactamases in 15 mM HEPES pH 7.5, 200 mM NaCl, supplemented with 50 μM ZnSO4, at 25° C.

[2] = system: E. coli DH10B pBCSK(−) producing VIM-24 (R228L); assay: MIC by agar dilution, E. coli DH10B producing VIM-24; type: cell-based; settings: Escherichia coli
Experimental: (§2) E. coli DH10B (Invitrogen, Carlsbad, Calif.) was used as a host strain for pBCSK (−) blaVIM-2, and to obtain a mutant library at position 228 by site-saturation mutagenesis, using the QuickChange XL Site-directed Mutagenesis Kit (Stratagene). Briefly, primers that capture all 19 variants at MBL position 228 were designed and PCR mutagenic reactions were conducted using pBCSK (−) blaVIM-2 as a template, and transformed into E. coli DH10B. Single colonies were selected for plasmid purification, and successful mutagenesis was verified by complete DNA sequencing.
(§3) The effect of Zn^2+ availability was also tested by agar dilution using MH supplemented with 250 μM ZnSO4 or 5 μM EDTA. Reported values are the mode of at least 3 biological replicates.

[3] = system: E. coli DH10B pBCSK(−) producing VIM-2 (228R); assay: MIC by agar dilution, E. coli DH10B producing VIM-2; type: cell-based
Source text: A forward primer containing the SacI restriction site and a reverse primer with the BamHI restriction site were used to amplify blaVIM-2 including the pET24a(+) ribosomal binding site, using plasmid pET-24a(+)-blaVIM-2 as template. The product was then subcloned into phagemid pBCSK (−) (Agilent (Santa Clara, Calif.)) using the above restriction sites, and thus placing the blaVIM-2 open reading frame under control of the lac promoter, to yield phagemid pBCSK (−) blaVIM-2.
as §2, §3

[4] = system: E. coli pBC SK(−); assay: MIC by agar dilution, E. coli DH10B host with empty phagemid; type: cell-based; settings: Escherichia coli
Experimental: as §2, §3

[5] = target: T2, VIM-2 (Escherichia coli, UniProt Q5U7L7); assay: Cefepime and ceftazidime hydrolysis in periplasm preparations, VIM-2; type: biochemical, P. aeruginosa; settings: 800 μM cefepime or 400 μM ceftazidime, 25° C.
T2 construct: expressed in transfected cells; host or cells: E. coli DH10B carrying pBC SK(-) blaVIM-2; periplasmic extract by osmotic shock with chloroform
Experimental: as §1

[6] = system: E. coli DH10B pBCSK(−) producing R228Y variant; assay: MIC by agar dilution, E. coli DH10B producing VIM-2 R228Y; type: cell-based; settings: Escherichia coli
Experimental: as §2, §3

[7] = system: E. coli DH10B pBCSK(−) producing R228Q variant; assay: MIC by agar dilution, E. coli DH10B producing VIM-2 R228Q; type: cell-based; settings: Escherichia coli
Experimental: as §2, §3

[8] = system: E. coli DH10B pBCSK(−) producing R228M variant; assay: MIC by agar dilution, E. coli DH10B producing VIM-2 R228M; type: cell-based; settings: Escherichia coli
Experimental: as §2, §3

[9] = system: E. coli DH10B pBCSK(−) producing R228K variant; assay: MIC by agar dilution, E. coli DH10B producing VIM-2 R228K; type: cell-based; settings: Escherichia coli
Experimental: as §2, §3

[10] = system: E. coli DH10B pBCSK(−) producing R228P variant; assay: MIC by agar dilution, E. coli DH10B producing VIM-2 R228P; type: cell-based; settings: Escherichia coli
Experimental: as §2, §3

[11] = target: T3, VIM-2 (Pseudomonas aeruginosa, UniProt Q9K2N0); assay: BTZ inhibition kinetics of nitrocefin hydrolysis by VIM-2; type: biochemical, P. aeruginosa
T3 construct: made in house; host or cells: E. coli BL21(DE3) pLys, plasmid pET-24a(+)-blaVIM-2-S21
Source text: (§4) Analysis of BTZ inhibition kinetics. Models involving one, or two-step slow binding were considered to analyze BTZ inhibition of NFC hydrolysis by VIM-2 and VIM-24 (Scheme 1).
(§5) Here E represents the free enzyme, and I the free inhibitor, EI is the final enzyme-inhibitor complex for a single step slow binding mechanism, and E*I is the enzyme-inhibitor complex formed after conformational changes in a two-step slow binding mechanism. Therefore, the dissociation constant for the EI complex (Ki), also called the inhibitor constant, is defined as Ki=k−1/k1; the dissociation constant for the E*I complex (Ki′) is defined as Ki′=k−2/k2, and the overall dissociation constant for the two-step mechanism (Ki*) is defined as Ki*=Ki/(1+([…])).
(§6) The Ki for each inhibitor was determined by direct competition assays under steady-state conditions. The initial velocity was measured in the presence of a constant concentration of enzyme (3 nM for VIM-2 and 4 nM for VIM-24) with increasing concentrations of inhibitor (5-60 μM) against a fixed concentration (5 x KM) of the indicator substrate, NCF, as previously described (42-44). The reactions were started by addition of VIM-2 or VIM-24 to substrate or to mixtures of substrate and inhibitor. Data were linearized by plotting inverse initial steady-state velocities (1/v0) against inhibitor concentration (I). Ki (observed) was determined by dividing the value for the y intercept by the slope of the line. Ki determinations were corrected to account for the affinity of NCF for the β-lactamase according to equation 3.
(§7) Measurements of association rate constants for inhibitor binding were carried out at 25° C. in 10 mM HEPES at pH 7.5 supplemented with 200 mM NaCl, 50 μM […] and 50 μg/ml BSA, in the presence of several concentrations of each compound. Reactions were then initiated by the addition of β-lactamase (3 nM VIM-2 or 4 nM VIM-24) to a mixture of 50 μM NCF and each BTZ without pre-incubation. Inhibitor association rate constants were estimated from linear extrapolation of the observed rate constant for inhibition (kobs), which was obtained by fitting progress curves of NFC hydrolysis to Eq. 4:
(§8) As previously described, the linear dependence of kobs vs. [I] at limiting I concentration approximates second-order rate constant k2/Ki. The observed second-order rate constant also includes an adjustment for competition between inhibitor and substrate binding (Eq. 5).
(§9) Also, vs calculated from the progress curves of NCF hydrolysis for each concentration of inhibitor were used to determine Ki*, according to the relationship shown in equation 6 (5). The value reported is the mean of three velocities±SD.
(§10) To further test the time-dependent inhibition mechanism of inhibitor binding, assays using dilutions of pre-formed complexes were performed. For these experiments, 1 μM of enzyme was incubated with varying concentrations of the inhibitor which allowed for complete inactivation of the enzyme during the 5 min incubation at 25° C. The reactions were then diluted 2,000-fold in 10 mM HEPES at pH 7.5 supplemented with 200 mM NaCl, 50 μM […] and 50 μg/ml BSA, which contained 50 μM NCF. Reactivation of the enzyme based on NCF hydrolysis was monitored over time. Control reaction with the free enzyme was performed in the same fashion.

[12] = target: T1, VIM-24; assay: BTZ inhibition kinetics of nitrocefin hydrolysis by VIM-24; type: biochemical
Source text: as §4, §5, §6, §7, §8, §9, §10

[13] = system: MBLs; assay: Assays in solution after prolonged exposure to oxidative conditions; type: biochemical; settings: data not shown
[14] = MHA supplemented with 5 μM EDTA, read-out: MIC
[15] = MHA supplemented with 250 μM Zn2+, read-out: MIC
[16] = Escherichia coli, MHA supplemented with 5 μM EDTA, read-out: MIC
[17] = Escherichia coli, MHA supplemented with 250 μM Zn2+, read-out: MIC
[18] = MHA supplemented with 5 μM EDTA
[19] = MHA supplemented with 250 μM Zn2+
[20] = rate constant for breakdown of E*I
[21] = rate constant for formation of E*I

SMILES | rate of hydrolysis (initial velocity) in periplasma [1] [M/s] | MIC ([2]; MHA) [µg/mL] | MIC [2, 14] [µg/mL] | MIC [2, 15] [µg/mL] | MIC ([3]; Escherichia coli, MHA) [µg/mL] | MIC [3, 16] [µg/mL] | MIC [3, 17] [µg/mL] | MIC ([4]; MHA) [µg/mL] | MIC [4, 18] [µg/mL] | MIC [4, 19] [µg/mL] | rate of hydrolysis (initial velocity) in periplasma [5] | MIC ([6]; MHA) [µg/mL] | MIC [6, 18] [µg/mL] | MIC [6, 19] [µg/mL] | MIC ([7]; MHA) [µg/mL] | MIC [7, 18] [µg/mL] | MIC [7, 19] [µg/mL] | MIC ([8]; MHA) [µg/mL] | MIC [8, 18] [µg/mL] | MIC [8, 19] [µg/mL] | further results
CC(C)(O/N=C(\C(=O)N[C@@H]1C(=O)N2C(C(=O)[O-])=C(C[n+]3ccccc3)CS[C@H]12)c1csc(N)n1)C(=O)O [Ceftazidime] | 4e-07 | 64 (≈ 117 µM) | 32 (≈ 58.5 µM) | 128 (≈ 234 µM) | 16 (≈ 29.3 µM) | 16 (≈ 29.3 µM) | 32 (≈ 58.5 µM) | 0.06 (≈ 0.11 µM) | ≤ 1 | ≤ 1 | measurable rates of hydrolysis were not obtained | 64 (≈ 117 µM) | 64 (≈ 117 µM) | 128 (≈ 234 µM) | 128 (≈ 234 µM) | 128 (≈ 234 µM) | 512 (≈ 937 µM) | 128 (≈ 234 µM) | 64 (≈ 117 µM) | 256 (≈ 468 µM) | MIC ([9]; MHA): 1 µg/mL (≈ 1.83 µM); MIC [9, 18]: ≤ 1 µg/mL; MIC [9, 19]: ≤ 1 µg/mL; MIC ([10]; MHA): 1 µg/mL (≈ 1.83 µM); MIC [10, 18]: ≤ 1 µg/mL; MIC [10, 19]: 4 µg/mL (≈ 7.32 µM)
CO/N=C(\C(=O)N[C@@H]1C(=O)N2C(C(=O)[O-])=C(C[N+]3(C)CCCC3)CS[C@H]12)c1csc(N)n1 [Cefepime] | 5.3e-07 | 4 (≈ 8.32 µM) | 4 (≈ 8.32 µM) | 4 (≈ 8.32 µM) | ≤ 0.5 | 0.5 (≈ 1.04 µM) | 0.5 (≈ 1.04 µM) | 0.03 (≈ 0.0624 µM) | ≤ 0.25 | ≤ 0.25 | 2.9×10^−7 M^s−1 | 8 (≈ 16.6 µM) | 8 (≈ 16.6 µM) | 8 (≈ 16.6 µM) | 16 (≈ 33.3 µM) | 16 (≈ 33.3 µM) | 32 (≈ 66.6 µM) | 2 (≈ 4.16 µM) | 4 (≈ 8.32 µM) | 2 (≈ 4.16 µM) | MIC ([3]; MHA): 0.5 µg/mL (≈ 1.04 µM); MIC ([9]; MHA): 0.5 µg/mL (≈ 1.04 µM); MIC [9, 18]: ≤ 0.25 µg/mL; MIC [9, 19]: ≤ 0.25 µg/mL; MIC ([10]; MHA): 0.25 µg/mL (≈ 0.52 µM); MIC [10, 18]: ≤ 0.25 µg/mL; MIC [10, 19]: 0.5 µg/mL (≈ 1.04 µM)
O=C(O)[C@@H]1CS[C@H]2CS[C@H](CS)N21 [L-CS319] | – | – | – | – | – | – | – | – | – | – | – | – | – | – | – | – | – | – | – | – | Ki ([11]; initial complex EI, NCF as reporter substrate): 3.7 ± 0.3 µM; Ki ([11]; overall dissociation constant of two-step mechanism (E*I)): 0.04 ± 0.01 µM; k−2 [11, 20]: 0.0003 ± 1 × 10^−4 s^−1; k2 [11, 21]: 0.03 ± 1 × 10^−3 s^−1; k−2 [12, 20]: 0.001 ± 1 × 10^−3 s^−1; k2 [12, 21]: 0.06 ± 2 × 10^−3 s−1; inhibitory activity towards MBLs after prolonged exposure to oxidative conditions [13]: abolishes the inhibitory activity
